In the test the test system is AsPC1 tumors. Put plainly: Efficacy study in mice bearing subcutaneous AsPC1 tumors (tumor volume). In kind it is in vivo, SWISS Nude mice. The settings on record: single treatments; FOLFIRINOX (Group 2) or ^177Lu-IPN01087 20 MBq/mouse IV weekly x3 (Group 3); FIG. 2. The protocol: Example 1: Efficacy Study on Animals Induced with AsPC1 Cells
The AsPC1 cell line was isolated from a metastatic site (ascites) from a patient (Chen WH. et al., In Vitro. 1982 January; 18(1):24-34).
Tumor cells were grown as monolayer at 37° C. in a humidified atmosphere (5% C02, 95% air). The culture medium is RPMI 1640 containing glutamax supplemented with 10% heat inactivated fetal bovine serum, sodium pyruvate and hepes. For experimental use, tumor cells were detached from the culture flask using accutase and neutralized by addition of complete culture medium. The cells were counted and their viability was assessed by 0.25% trypan blue exclusion assay. Two frozen pellets of AsPC-1 tumor cells were prepared: one frozen cell pellet prepared during the in-vitro cell culture, and one frozen cell pellet prepared using the cell suspension used for tumor induction in mice.
One hundred fifty (150) healthy female SWISS Nude mice (Crl:NU(Ico)-Foxn1 nu), 7 weeks old at reception, were obtained from Charles River.
Tumors were induced by subcutaneous injection of ten million (107) AsPC-1 cells in 200 μL of RPMI 1640 medium containing matrigel (50:50, v:v, ref: 356237, BD Biosciences, France) into the right flank (in the axis of the heart) of 150 female animals. […]

Take “^177Lu-zalsenertant tetraxetan [^177Lu-IPN01087]”: the “AsPC-1 tumor growth, antitumor effect compared to the vehicles” value is given as “produced an antitumor effect”.

These data come from US20240207276A1, “COMBINATION COMPRISING A NEUROTENSIN RECEPTOR BINDING COMPOUND AND FOLFIRINOX” (Fusion Pharmaceuticals Inc., priority 2021, published 2024).
